For one experiment, the target named is KRAS G12D (Homo sapiens (Human), UniProt P01116, G12D). In words: Inhibitory activity on KRAS G12D nucleotide (GDP-GTP) exchange reaction in vitro (SOS1-dependent, BODIPY FL GDP). It counts as biochemical. Conditions: BODIPY FL GDP-bound KRAS G12D, compound 25° C. 1 hour, then SOS1 and GMPPNP 30 minutes. The source says:
Test Example 1: Evaluation of inhibitory activity of compounds on KRAS G12D nucleotide (GDP-GTP) exchange reaction in vitro
Recombinant KRAS G12D (conjugated N-terminus His6-tag, TEV protease cleavage site and KRAS G12D residues 1-169 (SEQ ID NO: 1), prepared by the method described as below) and cleaved recombinant SOS1 (residues 564-1049(SEQ ID NO: 2), prepared by the method as below) proteins were expressed in E. coli and purified by affinity chromatography.
To prepare the recombinant KRAS G12D, the codon-optimized DNA sequence for the recombinant KRAS G12D (conjugated N-terminus His6-tag, TEV protease cleavage site and KRAS G12D residues 1-169 (SEQ ID NO: 3))was synthesized by GeneArt Technology (Life Technologies, Carlsbad, CA, US). The construct was subcloned into the expression vector pET28a and transformed into Escherichia coli BL21 (DE3) strains (Novagen, Madison, WI, US).
The transformed strain was cultivated in 2 L Luria Broth medium with 25 μg/mL kanamycin at a temperature of 37° C. to a density of 0.6 (OD600), then induced for expression with […] IPTG and further cultivated for 4 h. The cell pellet was resuspended in ice-cold lysis buffer containing 50 mM Tris-HCl (pH 7.5), 200 mM NaCl, and 100 μM TCEP (tris(2-carboxyethyl)phosphine).
After sonication, the disrupted debris was removed by centrifugation. The supernatant was applied on to Ni-NTA affinity gels, and the recombinant human KRAS (G12D) eluted fraction was collected. The buffer of the collected fraction was exchanged to the buffer containing 50 mM Tris-HCl (pH 7.5), 200 mM NaCl, 10% Glycerol, and 5 mM DTT by PD-10 column (GE-Healthcare, Chicago, IL, US).
To prepare the cleaved recombinant SOS1, the codon optimized DNA sequences for the recombinant SOS1 (residues 564-1049 with a conjugated N-terminus His6-tag and TEV protease cleavage site (SEQ ID NO: 4)) was synthesized by GeneArt Technology (Life Technologies). The construct was subcloned into the expression vector pET28a and transformed into Escherichia coli BL21 (DE3) strains (Novagen, Madison, WI, USA).
The transformed strain was cultivated in 2 L Terrific Broth medium with 25 μg/mL kanamycin at a temperature of 37° C. to a density of 0.8 (OD600), then shifted to a temperature of 16° C., induced for expression with […] IPTG, and further cultivated for 16 h. The cell pellet was resuspended in ice-cold lysis buffer containing 50 mM Tris-HCl (pH 7.5), 200 mM NaCl, and 100 μM TCEP.
After sonication, the disrupted debris was removed by centrifugation. The supernatant was applied on to Ni-NTA affinity gels, and the recombinant human SOS1 eluted fraction was collected. Then, His6-tagged TEV protease was added to the collected fraction, dialyzed with the ice-cold lysis buffer for 16 h at a temperature of 4° C., and applied on to Ni-NTA affinity gels. The flow-through fraction containing the tag-cleavaged recombinant human SOS1 was collected. The buffer of the collected fraction was exchanged to the buffer containing 50 mM Tris-HCl (pH 7.5), 200 mM NaCl, 10% Glycerol, and 5 mM DTT by PD-10 column (GE-Healthcare).
To prepare BODIPY FL (fluorescent dye) GDP-bound KRAS G12D protein, 50 μM KRAS G12D protein was incubated with 0.5 mM BODIPY FL GDP in a loading buffer (20 mM Tris-HCl (pH 7.5), 50 mM NaCl, 1 mM DTT and 2.5 mM EDTA) for 1 hour on ice. After the incubation, MgCl2 was added to a final concentration of 10 mM, followed by incubation at room temperature for 30 minutes.
The mixture was allowed to pass through a NAP-5 column to remove free nucleotides and purified BODIPY FL GDP-bound KRAS G12D protein was used for compound evaluation.
For the measurement of the inhibitory activity of compounds on GDP-GTP exchange rate of recombinant KRAS G12D, BODIPY FL GDP-bound KRAS G12D protein was incubated with various concentrations of compound in a reaction buffer (20 mM Tris-HCl (pH 7.5), 100 mM NaCl, 1 mM MgCl2, 2 mM DTT, 0.1% Tween 20) at 25° C. for 1 hour. […]

Experiment [1] has as its system KRAS-G12D mutant cell line (A-427). Briefly: Growth inhibition activity on KRAS-G12D mutant cell line (A-427), CellTiter-Glo 3D. It counts as cell-based. To be noted: Homo sapiens, 72 h, A-427 cells, 3-day culture with compound, read-out: A427 CTX IC50. How it is done: Test Example 2: A measurement test of growth inhibition activity on KRAS-G12D mutant cell line (A-427) (in vitro) A-427 cells (ATCC, Cat #: HTB-53), which are a KRAS-G12D mutant human lung cancer cell line, were suspended in a 10% fetal bovine serum-containing E-MEM medium (manufactured by Fujifilm Wako Pure Chemical Corporation). The cell suspension was seeded into each well of a 384-well U bottom microplate and cultured in an incubator containing 5% CO2 gas at 37° C. for 1 day.
The compound of the present invention was dissolved in DMSO, and the test compound was diluted with DMSO to give a concentration 500 times the final concentration. The solution of the test compound in DMSO was diluted with the medium used for suspending cells and added to each well of the cell-culture plate to give a DMSO final concentration of 0.2%, followed by culture in an incubator containing 5% CO2 gas at 37° C. for another 3 days. The cell count after a 3-day culture in the presence of the compound was measured using CellTiter-Glo 3D Reagent (manufactured by Promega Corporation).
All wells were added with CellTiter-Glo 3D Reagent and mixed for 10 minutes. 30 minutes after mixing, luminescence was measured by a plate reader. The growth inhibition rate was calculated from the following equation, and the concentration of the test compound at which 50% inhibition was achieved (IC50 (μM)) was determined.
Growth Inhibition Rate(%)=(C−T)/(C)×100
T: the emission intensity in a well into which a test compound was added.
C: the emission intensity in a well into which a test compound was not added.
On the technique in general: Cellular ATP, detected with luciferase, serves as a proxy for viable cell number.

As usually defined, the pIC50 is the IC50 on a negative log10 scale, so that one unit is a factor of ten.

pIC50: −log10 of the molar value.

Chain of KRAS G12D (P01116 other isoform, or with tags, fused parts or gaps G12D (already in the parent)): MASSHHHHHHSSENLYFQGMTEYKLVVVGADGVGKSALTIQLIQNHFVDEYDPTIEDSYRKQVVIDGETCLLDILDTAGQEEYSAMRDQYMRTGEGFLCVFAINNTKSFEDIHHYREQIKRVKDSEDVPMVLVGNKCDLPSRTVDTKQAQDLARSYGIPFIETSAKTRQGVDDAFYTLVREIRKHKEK

Take `C=Cc1cccc2cc(O)cc(C(=O)N3Cc4nc(OCC5(CN6CC[C@@H](F)C6)CC5)nc(N5CC6CCC(C5)N6)c4C3)c12` [Example 34, (4-(3,8-diazabicyclo[3.2.1]octan-3-yl)-2-((1-(((R)-3-fluoropyrrolidin-1-yl)methyl)cyclopropyl)methoxy)-5,7-dihydro-6H-pyrrolo[3,4-d]pyrimidin-6-yl) (3-hydroxy-8-vinylnaphthalen-1-yl)methanone]: the pIC50 was 7.85 on KRAS G12D and 5.15 in experiment [1].

Turning to `CN(C)CC1(COc2nc3c(c(N4CC5CCC(C4)N5)n2)CCN(c2cc(O)cc4cccc(Br)c24)C3)CC1(C)C` (stereo not drawn) [Example 30, 4-(4-(3,8-diazabicyclo[3.2.1]octan-3-yl)-2-((1-((dimethylamino)methyl)-2,2-dimethylcyclopropyl)methoxy)-5,8-dihydropyrido[3,4-d]pyrimidin-7(6H)-yl)-5-bromonaphthalen-2-ol], the pIC50 at KRAS G12D is 7.93; in experiment [1], 5.86.

As to `C#Cc1cccc2cc(O)cc(C(=O)N3Cc4nc(OCC5(CN6CCOCC6)CC5)nc(N5CC6CCC(C5)N6)c4C3)c12` [Example 10, (4-(3,8-diazabicyclo[3.2.1]octan-3-yl)-2-((1-(morpholinomethyl)cyclopropyl)methoxy)-5,7-dihydro-6H-pyrrolo[3,4-d]pyrimidin-6-yl) (8-ethynyl-3-hydroxynaphthalen-1-yl)methanone], the pIC50 against KRAS G12D was 8.82; in experiment [1], 5.18.

With `O=C(c1cc(O)cc2cccc(I)c12)N1Cc2nc(OCC3(CN4CCOCC4)CC3)nc(N3CC4CCC(C3)N4)c2C1` [Example 13, (4-(3,8-diazabicyclo[3.2.1]octan-3-yl)-2-((1-(morpholinomethyl)cyclopropyl)methoxy)-5,7-dihydro-6H-pyrrolo[3,4-d]pyrimidin-6-yl) (3-hydroxy-8-iodonaphthalen-1-yl)methanone], the values for the pIC50 (at KRAS G12D; in experiment [1]) were 8.26 and 5.07, respectively.

Consider `C#Cc1cccc2cc(N)nc(N3CCc4c(nc(OCC5(CN(C)C)CC5)nc4N4CC5CCC(C4)N5)C3)c12` [Example 36, 1-(4-(3,8-diazabicyclo[3.2.1]octan-3-yl)-2-((1-((dimethylamino)methyl)cyclopropyl)methoxy)-5,8-dihydropyrido[3,4-d]pyrimidin-7(6H)-yl)-8-ethynylisoquinolin-3-amine], for which the results for the negative-log IC50 (pIC50) (against KRAS G12D; in experiment [1]) were 7.56 and less than 5.00, respectively.

Take `Cc1cccc2cc(O)cc(N3CCc4c(nc(OCC5(CN(C)C)CC5)nc4N4CC5CCC(C4)N5)C3)c12` [Example 4, 4-(4-(3,8-diazabicyclo[3.2.1]octan-3-yl)-2-((1-((dimethylamino)methyl)cyclopropyl)methoxy)-5,8-dihydropyrido[3,4-d]pyrimidin-7(6H)-yl)-5-methylnaphthalen-2-ol]: the pIC50 against KRAS G12D is 8.82; in experiment [1], 5.93.

As to `C#Cc1cccc2cccc(C3CCc4c(nc(OCC5(CN(C)C)CC5)nc4N4CC5CCC(C4)N5)C3)c12` (stereo not drawn) [Example 24, 1-(1-(((4-(3,8-diazabicyclo[3.2.1]octan-3-yl)-7-(8-ethynylnaphthalen-1-yl)-5,6,7,8-tetrahydroquinazolin-2-yl)oxy)methyl)cyclopropyl)-N,N-dimethylmethanamine], the values for the pIC50 (on KRAS G12D; in experiment [1]) were 7.77 and 5.91, respectively.

`C#Cc1cccc2cc(O)cc(C(=O)N3Cc4nc(OCC5(CN6CC[C@@H](F)C6)CC5)nc(N5CC6CCC(C5)N6)c4C3)c12` [Example 11, (4-(3,8-diazabicyclo[3.2.1]octan-3-yl)-2-((1-(((R)-3-fluoropyrrolidin-1-yl)methyl)cyclopropyl)methoxy)-5,7-dihydro-6H-pyrrolo[3,4-d]pyrimidin-6-yl) (8-ethynyl-3-hydroxynaphthalen-1-yl)methanone]: the figures for the pIC50 (at KRAS G12D; in experiment [1]) were 8.85 and 5.11, respectively.

As to `CO[C@@H]1C[C@@H](COc2nc3c(c(N4CC5CCC(C4)N5)n2)CCN(c2cc(O)cc4cccc(Br)c24)C3)N(C)C1` [Example 32, 4-(4-(3,8-diazabicyclo[3.2.1]octan-3-yl)-2-(((2S,4R)-4-methoxy-1-methylpyrrolidin-2-yl)methoxy)-5,8-dihydropyrido[3,4-d]pyrimidin-7(6H)-yl)-5-bromonaphthalen-2-ol], the negative logarithm of the IC50 (pIC50) on KRAS G12D was 8.49; in experiment [1], 5.97.

On to `O=C(c1cc(O)cc2cccc(I)c12)N1Cc2nc(OCC3(CN4CC[C@@H](F)C4)CC3)nc(N3CC4CCC(C3)N4)c2C1` [Example 12, (4-(3,8-diazabicyclo[3.2.1]octan-3-yl)-2-((1-(((R)-3-fluoropyrrolidin-1-yl)methyl)cyclopropyl)methoxy)-5,7-dihydro-6H-pyrrolo[3,4-d]pyrimidin-6-yl) (3-hydroxy-8-iodonaphthalen-1-yl)methanone], for which the negative logarithm of the IC50 (pIC50) against KRAS G12D was 8.36; in experiment [1] it was 5.09.

Take `CN(C)CC1(COc2nc3c(c(N4CC5CCC(C4)N5)n2)CCN(c2cccc4cccc(Br)c24)C3)CC1(F)F` (stereo not drawn) [Example 29, 1-(1-(((4-(3,8-diazabicyclo[3.2.1]octan-3-yl)-7-(8-bromonaphthalen-1-yl)-5,6,7,8-tetrahydropyrido[3,4-d]pyrimidin-2-yl)oxy)methyl)-2,2-difluorocyclopropyl)-N,N-dimethylmethanamine]: the pIC50 against KRAS G12D is 7.42; in experiment [1], 5.90.

Turning to `Oc1cc(N2CCc3c(nc(OCC4(CN5CC[C@@H](F)C5)CC4)nc3N3CC4CCC(C3)N4)C2)c2c(I)cccc2c1` [Example 8, 4-(4-(3,8-diazabicyclo[3.2.1]octan-3-yl)-2-((1-(((R)-3-fluoropyrrolidin-1-yl)methyl)cyclopropyl)methoxy)-5,8-dihydropyrido[3,4-d]pyrimidin-7(6H)-yl)-5-iodonaphthalen-2-ol], the pIC50 on KRAS G12D was 9.05; in experiment [1], 6.33.

Source of the values: US20230348495A1, “A COMPOUND HAVING INHIBITORY ACTIVITY AGAINST KRAS G12D MUTATION” (TAIHO PHARMACEUTICAL CO., LTD., priority 2019, published 2023).
